Measurements as given in ChEMBL document CHEMBL4433255, “Small-molecule agents for the treatment of inflammatory bowel disease” (Bioorg Med Chem Lett, 2019).

Experiments:
Integrin alpha-4/beta-7 = molecular target: T1, Integrin alpha-4/beta-7 (Homo sapiens, UniProt P13612+P26010); assay: Antagonist activity at integrin alpha4beta7 expressed in human RPMI8866 cells assessed as reduction in cell adhesion to rat MadCAM incubated for 40 to 60 mins by lactate dehydrogenase assay; assay type: cell-based
T1 sequence (P13612 whole entry): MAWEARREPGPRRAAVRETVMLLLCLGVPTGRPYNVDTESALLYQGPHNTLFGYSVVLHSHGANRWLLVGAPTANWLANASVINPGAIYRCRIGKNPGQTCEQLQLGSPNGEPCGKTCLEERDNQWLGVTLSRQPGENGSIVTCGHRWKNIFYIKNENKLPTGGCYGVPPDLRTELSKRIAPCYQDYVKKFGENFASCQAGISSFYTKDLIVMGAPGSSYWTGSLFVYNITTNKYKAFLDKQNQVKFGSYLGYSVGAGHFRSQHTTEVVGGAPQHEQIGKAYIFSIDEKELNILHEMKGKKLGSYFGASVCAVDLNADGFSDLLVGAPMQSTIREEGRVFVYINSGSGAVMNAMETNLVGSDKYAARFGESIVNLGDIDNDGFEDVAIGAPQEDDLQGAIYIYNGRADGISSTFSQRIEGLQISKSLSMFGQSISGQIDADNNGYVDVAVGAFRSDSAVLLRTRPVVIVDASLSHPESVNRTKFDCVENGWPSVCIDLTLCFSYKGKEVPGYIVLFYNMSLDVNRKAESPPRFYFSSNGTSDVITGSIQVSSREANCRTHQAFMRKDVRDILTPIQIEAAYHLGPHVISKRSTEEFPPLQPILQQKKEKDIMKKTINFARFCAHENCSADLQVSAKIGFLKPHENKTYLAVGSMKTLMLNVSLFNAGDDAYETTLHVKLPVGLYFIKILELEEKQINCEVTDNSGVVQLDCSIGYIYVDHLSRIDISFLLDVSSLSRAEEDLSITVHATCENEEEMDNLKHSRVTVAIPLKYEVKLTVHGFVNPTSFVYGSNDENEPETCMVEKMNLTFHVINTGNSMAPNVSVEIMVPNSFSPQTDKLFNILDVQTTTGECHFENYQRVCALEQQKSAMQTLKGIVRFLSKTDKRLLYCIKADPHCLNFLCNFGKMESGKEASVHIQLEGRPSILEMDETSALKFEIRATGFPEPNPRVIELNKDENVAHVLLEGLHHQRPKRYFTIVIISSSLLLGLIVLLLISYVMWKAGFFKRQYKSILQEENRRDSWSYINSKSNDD
T1 sequence (P26010 whole entry): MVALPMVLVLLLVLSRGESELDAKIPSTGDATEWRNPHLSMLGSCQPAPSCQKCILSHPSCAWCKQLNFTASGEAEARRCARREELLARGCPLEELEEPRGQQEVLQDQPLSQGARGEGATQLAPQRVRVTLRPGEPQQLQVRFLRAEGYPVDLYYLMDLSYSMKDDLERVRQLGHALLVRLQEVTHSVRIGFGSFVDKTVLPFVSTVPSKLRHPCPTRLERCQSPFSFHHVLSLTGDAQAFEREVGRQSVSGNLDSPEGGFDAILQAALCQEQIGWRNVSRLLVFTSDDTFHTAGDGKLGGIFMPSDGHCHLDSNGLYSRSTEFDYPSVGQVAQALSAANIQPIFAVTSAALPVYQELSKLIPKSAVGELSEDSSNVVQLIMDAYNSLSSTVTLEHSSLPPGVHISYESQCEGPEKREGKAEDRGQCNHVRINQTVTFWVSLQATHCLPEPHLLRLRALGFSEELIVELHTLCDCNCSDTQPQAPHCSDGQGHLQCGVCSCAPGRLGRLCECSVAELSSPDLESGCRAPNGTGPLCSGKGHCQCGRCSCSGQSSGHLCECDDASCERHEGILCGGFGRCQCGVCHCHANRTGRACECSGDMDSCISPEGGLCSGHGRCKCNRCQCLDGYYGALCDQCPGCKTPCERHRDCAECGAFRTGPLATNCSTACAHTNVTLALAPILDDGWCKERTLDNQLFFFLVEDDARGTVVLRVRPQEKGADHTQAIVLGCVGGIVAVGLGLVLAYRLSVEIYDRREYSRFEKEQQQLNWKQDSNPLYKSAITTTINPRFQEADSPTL

Integrin alpha-4/beta-1 = Integrin alpha-4/beta-1 (Homo sapiens, UniProt P05556+P13612); assay: Antagonist activity at integrin alpha4beta1 expressed in human Jurkat cells assessed as reduction in cell adhesion to human VCAM-1 incubated for 40 to 60 mins by lactate dehydrogenase assay; assay type: cell-based
Mus musculus = assay: Immunosuppressive activity in BALB/c mouse assessed as inhibition of leukocyte homing to peyer's patches orally dosed by FACS analysis; assay type: functional, organism-based
[1] = Inhibition of IL-10 deficient BALB/c mouse CD4 positive T-cell migration by immunofluorescence method relative to control; assay type: functional
[2] = molecular target: Sphingosine 1-phosphate receptor 5 (Homo sapiens, UniProt Q9H228); assay: Agonist activity at S1P5 (unknown origin) assessed as stimulation of [35S]GTPgammaS binding incubated for 120 mins in presence of GDP by TopCount scintillation counting method; assay type: functional
Rattus norvegicus = assay: Antiinflammatory activity in Sprague-Dawley rat model of TNBS-induced colitis assessed as reduction in number of circulating lymphocytes at 0.6 mg/kg, po dosed 2 hrs after TNBS treatment and continued daily for 7 days by gavage and measured up to 24 hrs post treatment relative to control; assay type: functional; parameters: scale not given: the % may be the effect or the level left
[3] = Inhibition of recombinant human BCR-JAK1 expressed in mouse Ba/F3 cells assessed as reduction in pSTAT5 level incubated for 30 mins by AlphaScreen assay; assay type: cell-based; settings: BaF3, 0.5 h
Homo sapiens [4] = organism: Homo sapiens; assay: Selectivity ratio of EC50 for recombinant human BCR-JAK1 expressed in mouse Ba/F3 cells to EC50 for recombinant human TEL-JAK2 expressed in mouse Ba/F3 cells; assay type: cell-based
Homo sapiens [5] = organism: Homo sapiens; assay: Selectivity ratio of EC50 for recombinant human BCR-JAK1 expressed in mouse Ba/F3 cells to EC50 for recombinant human TEL-JAK3 expressed in mouse Ba/F3 cells; assay type: cell-based
Homo sapiens [6] = organism: Homo sapiens; assay: Selectivity ratio of EC50 for recombinant human BCR-JAK1 expressed in mouse Ba/F3 cells to EC50 for recombinant human TEL-TYK2 expressed in mouse Ba/F3 cells; assay type: cell-based
BaF3 = assay: Inhibition of chemotaxis in mouse BAF3 cells; assay type: functional, cell-based

Sequence of Sphingosine 1-phosphate receptor 5 (Q9H228 whole entry): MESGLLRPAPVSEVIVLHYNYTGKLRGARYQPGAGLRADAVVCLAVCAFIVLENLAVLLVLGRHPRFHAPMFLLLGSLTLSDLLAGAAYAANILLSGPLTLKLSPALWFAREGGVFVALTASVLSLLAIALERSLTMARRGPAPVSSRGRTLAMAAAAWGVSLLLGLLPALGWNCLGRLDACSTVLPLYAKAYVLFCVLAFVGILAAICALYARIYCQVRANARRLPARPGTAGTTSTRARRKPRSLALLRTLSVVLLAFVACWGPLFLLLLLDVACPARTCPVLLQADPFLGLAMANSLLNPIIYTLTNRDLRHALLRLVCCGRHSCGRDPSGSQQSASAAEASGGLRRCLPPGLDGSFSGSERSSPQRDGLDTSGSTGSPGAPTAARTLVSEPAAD
Sequence of Integrin alpha-4/beta-1 (P05556 whole entry, one chain of several): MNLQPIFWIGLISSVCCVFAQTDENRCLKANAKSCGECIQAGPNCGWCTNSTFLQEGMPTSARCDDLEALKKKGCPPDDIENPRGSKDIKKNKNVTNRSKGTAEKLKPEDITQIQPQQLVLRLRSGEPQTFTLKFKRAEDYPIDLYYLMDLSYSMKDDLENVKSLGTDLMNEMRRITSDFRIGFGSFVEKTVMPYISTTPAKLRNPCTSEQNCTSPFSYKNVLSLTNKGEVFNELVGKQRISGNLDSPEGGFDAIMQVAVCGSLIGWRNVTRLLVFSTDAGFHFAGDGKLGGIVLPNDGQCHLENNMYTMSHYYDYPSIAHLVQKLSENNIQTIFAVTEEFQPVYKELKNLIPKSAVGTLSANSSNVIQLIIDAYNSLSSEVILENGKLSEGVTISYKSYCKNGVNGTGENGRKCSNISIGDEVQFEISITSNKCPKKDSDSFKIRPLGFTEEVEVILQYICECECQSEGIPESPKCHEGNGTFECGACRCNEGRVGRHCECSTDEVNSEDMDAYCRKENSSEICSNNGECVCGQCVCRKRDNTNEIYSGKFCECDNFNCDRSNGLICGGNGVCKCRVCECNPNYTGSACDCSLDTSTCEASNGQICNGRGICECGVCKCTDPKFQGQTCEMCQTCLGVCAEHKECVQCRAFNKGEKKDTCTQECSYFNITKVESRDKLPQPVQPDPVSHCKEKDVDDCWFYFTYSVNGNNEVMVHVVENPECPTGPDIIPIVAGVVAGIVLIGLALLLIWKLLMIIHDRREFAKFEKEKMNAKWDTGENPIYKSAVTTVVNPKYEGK

CN(C)c1ccc2c(c1)c(=O)n(-c1ccc(C[C@H](NC(=O)c3c(Cl)cccc3Cl)C(=O)O)cc1)c(=O)n2C
EC50 (Integrin alpha-4/beta-7): 1.4 nM
EC50 (Integrin alpha-4/beta-1): 5.4 nM
EC50 (Mus musculus): 180 nM
inhibition (INH) [1]: >95%

CC(C)Oc1ccc(-c2nc(-c3cccc4c3CC[C@@H]4NCCO)no2)cc1C#N [OZANIMOD]
EC50 [2]: 4.3 nM
Activity (Rattus norvegicus): 51%

CC[C@@H]1CN(C(=O)NCC(F)(F)F)C[C@@H]1c1cnc2cnc3[nH]ccc3n12 [UPADACITINIB]
EC50 [3]: 14 nM
Ratio EC50 (Homo sapiens [4]): 42
Ratio EC50 (Homo sapiens [5]): 133
Ratio EC50 (Homo sapiens [6]): 192

CC(C)(C)c1ccc(S(=O)(=O)Nc2ccc(Cl)cc2C(=O)c2cc[n+]([O-])cc2)cc1 [VERCIRNON]
EC50 (BaF3): 2.8 nM
